In ChEMBL document CHEMBL4145521, “Regioselective synthesis of 3,4-diaryl-5-unsubstituted isoxazoles, analogues of natural cytostatic combretastatin A4” (Eur J Med Chem, 2018):

What was measured:
Assay type in all cases: functional
[1] = system: NCI-H23; assay: Cytotoxicity against human NCI-H23 cells assessed as cell growth at 0.1 uM incubated for 48 hrs by sulforhodamine B assay relative to control; details: NCI-H23, 48 h, read-out: Activity
[2] = system: RXF 393; assay: Cytotoxicity against human RXF393 cells assessed as cell growth at 100 uM incubated for 48 hrs by sulforhodamine B assay relative to control; details: RXF 393, 48 h, read-out: Activity
[3] = system: NCI-H522; assay: Cytotoxicity against human NCI-H522 cells incubated for 48 hrs by sulforhodamine B assay; details: NCI-H522, 48 h
[4] = system: SK-OV-3; assay: Cytotoxicity against human SKOV3 cells assessed as cell growth at 1 uM incubated for 48 hrs by sulforhodamine B assay relative to control; details: SK-OV-3, 48 h, read-out: Activity
[5] = system: HCT-116; assay: Cytotoxicity against human HCT116 cells assessed as cell growth at 0.01 uM incubated for 48 hrs by sulforhodamine B assay relative to control; details: HCT-116, 48 h, read-out: Activity
[6] = system: Malme-3M; assay: Cytotoxicity against human MALME-3M cells assessed as cell growth at 0.01 uM incubated for 48 hrs by sulforhodamine B assay relative to control; details: read-out: Activity
[7] = system: A549; assay: Cytotoxicity against human A549/ATCC cells assessed as cell growth at 0.1 uM incubated for 48 hrs by sulforhodamine B assay relative to control; details: A549, 48 h, read-out: Activity
[8] = system: HOP-92; assay: Cytotoxicity against human HOP92 cells assessed as cell growth at 1 uM incubated for 48 hrs by sulforhodamine B assay relative to control; details: HOP-92, 48 h, read-out: Activity
[9] = system: UO-31; assay: Cytotoxicity against human UO31 cells assessed as cell growth at 10 uM incubated for 48 hrs by sulforhodamine B assay relative to control; details: UO-31, 48 h, read-out: Activity
[10] = system: RPMI-8226; assay: Cytotoxicity against human RPMI8226 cells assessed as cell growth at 0.01 uM incubated for 48 hrs by sulforhodamine B assay relative to control; details: RPMI-8226, 48 h, read-out: Activity
[11] = system: MDA-MB-435; assay: Cytotoxicity against human MDA-MB-435 cells assessed as cell growth at 10 uM incubated for 48 hrs by sulforhodamine B assay relative to control; details: MDA-MB-435, 48 h, read-out: Activity
[12] = system: HOP-92; assay: Cytotoxicity against human HOP92 cells assessed as cell growth at 0.1 uM incubated for 48 hrs by sulforhodamine B assay relative to control; details: HOP-92, 48 h, read-out: Activity
[13] = system: MOLT-4; assay: Cytotoxicity against human MOLT4 cells assessed as cell growth at 0.01 uM incubated for 48 hrs by sulforhodamine B assay relative to control; details: MOLT-4, 48 h, read-out: Activity
[14] = system: SN12C; assay: Cytotoxicity against human SN12C cells incubated for 48 hrs by sulforhodamine B assay
[15] = system: SK-OV-3; assay: Cytotoxicity against human SKOV3 cells assessed as cell growth at 0.01 uM incubated for 48 hrs by sulforhodamine B assay relative to control; details: SK-OV-3, 48 h, read-out: Activity
[16] = system: SK-MEL-5; assay: Cytotoxicity against human SK-MEL-5 cells assessed as cell growth at 10 uM incubated for 48 hrs by sulforhodamine B assay relative to control; details: SK-MEL-5, 48 h, read-out: Activity
[17] = system: HL-60(TB); assay: Cytotoxicity against human HL-60(TB) cells assessed as cell growth at 10 uM incubated for 48 hrs by sulforhodamine B assay relative to control; details: HL-60, 48 h, read-out: Activity
[18] = system: HT-29; assay: Cytotoxicity against human HT-29 cells assessed as cell growth at 1 uM incubated for 48 hrs by sulforhodamine B assay relative to control; details: HT-29, 48 h, read-out: Activity
[19] = system: MOLT-4; assay: Cytotoxicity against human MOLT4 cells assessed as cell growth at 100 uM incubated for 48 hrs by sulforhodamine B assay relative to control; details: MOLT-4, 48 h, read-out: Activity
[20] = system: MOLT-4; assay: Cytotoxicity against human MOLT4 cells assessed as cell growth at 0.1 uM incubated for 48 hrs by sulforhodamine B assay relative to control; details: MOLT-4, 48 h, read-out: Activity
[21] = system: SNB-19; assay: Cytotoxicity against human SNB19 cells assessed as cell growth at 100 uM incubated for 48 hrs by sulforhodamine B assay relative to control; details: SNB-19, 48 h, read-out: Activity
[22] = system: NCI/ADR-RES; assay: Cytotoxicity against human NCI/ADR-RES cells incubated for 48 hrs by sulforhodamine B assay
[23] = system: OVCAR-5; assay: Cytotoxicity against human OVCAR5 cells assessed as cell growth at 10 uM incubated for 48 hrs by sulforhodamine B assay relative to control; details: OVCAR-5, 48 h, read-out: Activity
[24] = system: CCRF-CEM; assay: Cytotoxicity against human CCRF-CEM cells assessed as cell growth at 0.1 uM incubated for 48 hrs by sulforhodamine B assay relative to control; details: read-out: Activity
[25] = system: SR; assay: Cytotoxicity against human SR cells assessed as cell growth at 1 uM incubated for 48 hrs by sulforhodamine B assay relative to control; details: read-out: Activity
[26] = system: SW-620; assay: Cytotoxicity against human SW620 cells incubated for 48 hrs by sulforhodamine B assay; details: SW-620, 48 h
[27] = system: HCT-15; assay: Cytotoxicity against human HCT15 cells assessed as cell growth at 10 uM incubated for 48 hrs by sulforhodamine B assay relative to control; details: HCT-15, 48 h, read-out: Activity
[28] = system: NCI-H322M; assay: Cytotoxicity against human NCI-H322M cells incubated for 48 hrs by sulforhodamine B assay
[29] = system: NCI-H522; assay: Cytotoxicity against human NCI-H522 cells assessed as cell growth at 100 uM incubated for 48 hrs by sulforhodamine B assay relative to control; details: NCI-H522, 48 h, read-out: Activity
[30] = system: RPMI-8226; assay: Cytotoxicity against human RPMI8226 cells assessed as cell growth at 10 uM incubated for 48 hrs by sulforhodamine B assay relative to control; details: RPMI-8226, 48 h, read-out: Activity
[31] = system: M14; assay: Cytotoxicity against human M14 cells assessed as cell growth at 100 uM incubated for 48 hrs by sulforhodamine B assay relative to control; details: M14, 48 h, read-out: Activity
[32] = system: HCT-116; assay: Cytotoxicity against human HCT116 cells assessed as cell growth at 1 uM incubated for 48 hrs by sulforhodamine B assay relative to control; details: HCT-116, 48 h, read-out: Activity

SMILES: COc1ccc(-c2nocc2-c2cc(OC)c(OC)c(OC)c2)cc1
- growth at 0.1 µM [1]: 67%
- growth at 100 µM [2]: -2%
- GI50 ([3]; read-out: GI50): 22.5 nM
- LC50 ([3]; read-out: LC50): > 100000 nM
- TGI ([3]; read-out: TGI): 75.2 nM
- GI50 ([3]; read-out: pGI50 (converted)): 22.4 nM
- LC50 ([3]; read-out: pLC50 (converted)): > 100000 nM
- TGI ([3]; read-out: pTGI (converted)): 75.9 nM
- growth at 1 µM [4]: 38%
- growth at 0.01 µM [5]: 92%
- growth at 0.01 µM [6]: 86%
- growth at 0.1 µM [7]: 47%
- growth at 1 µM [8]: 46%
- growth at 10 µM [9]: 23%
- growth at 0.01 µM [10]: 100%
- growth at 10 µM [11]: -29%
- growth at 0.1 µM [12]: 72%
- growth at 0.01 µM [13]: 99%
- GI50 ([14]; read-out: GI50): 825 nM
- LC50 ([14]; read-out: LC50): > 100000 nM
- TGI ([14]; read-out: TGI): 92600 nM
- GI50 ([14]; read-out: pGI50 (converted)): 832 nM
- LC50 ([14]; read-out: pLC50 (converted)): > 100000 nM
- TGI ([14]; read-out: pTGI (converted)): 93300 nM
- growth at 0.01 µM [15]: 87%
- growth at 10 µM [16]: -11%
- growth at 10 µM [17]: -8%
- growth at 1 µM [18]: 2%
- growth at 100 µM [19]: 5%
- growth at 0.1 µM [20]: 85%
- growth at 100 µM [21]: 8%
- GI50 ([22]; read-out: GI50): 53.8 nM
- LC50 ([22]; read-out: LC50): > 100000 nM
- TGI ([22]; read-out: TGI): 37200 nM
- GI50 ([22]; read-out: pGI50 (converted)): 53.7 nM
- LC50 ([22]; read-out: pLC50 (converted)): > 100000 nM
- TGI ([22]; read-out: pTGI (converted)): 37200 nM
- growth at 10 µM [23]: 39%
- growth at 0.1 µM [24]: 90%
- growth at 1 µM [25]: 30%
- GI50 ([26]; read-out: GI50): 50.9 nM
- CC50 ([26]; read-out: LC50 (the source's name)): > 100000 nM
- TGI ([26]; read-out: TGI): > 100000 nM
- GI50 ([26]; read-out: pGI50 (converted)): 51.3 nM
- CC50 ([26]; read-out: pLC50 (the source's name) (converted)): > 100000 nM
- TGI ([26]; read-out: pTGI): > 100000 nM
- growth at 10 µM [27]: 11%
- GI50 ([28]; read-out: GI50): 737 nM
- LC50 ([28]; read-out: LC50): > 100000 nM
- TGI ([28]; read-out: TGI): > 100000 nM
- GI50 ([28]; read-out: pGI50 (converted)): 741 nM
- LC50 ([28]; read-out: pLC50 (converted)): > 100000 nM
- TGI ([28]; read-out: pTGI): > 100000 nM
- growth at 100 µM [29]: -48%
- growth at 10 µM [30]: 16%
- growth at 100 µM [31]: -5%
- growth at 1 µM [32]: 14%
